Experiments:
Experiment in all cases: relative viability (nuclei count vs DMSO), 5 days (fraction); higher = more cells survive
[1] = compound: Cc1cnc(CNC(=O)c2c(=O)c3ccc(N4CCCN(C)CC4)nc3n3c2sc2ccccc23)cn1 [CX-5461] + CC(=O)c1c(C)c2cnc(Nc3ccc(N4CCNCC4)cn3)nc2n(C2CCCC2)c1=O [Palbociclib] (partner 0.5 µM)
How it was run: (§1)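 Relative viability divides the nuclei count in treated wells by that in vehicle wells. Lung cancer cell lines were seeded in 1536-well plates, dosed by pin tool the next day, and fixed and stained after 5 days in one step with final 0.05% Triton X-100, 1% formaldehyde and 1 ug/ml Hoechst. Dosing was a single drug or a fixed anchor-drug dose plus five library-drug doses (not always all listed) in √10 steps, and values are medians of duplicate plates imaged at 4×.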

[2] = compound: O=C(Nc1cc(C(F)(F)F)cc(C(F)(F)F)c1)c1cc(Cl)ccc1O [IMD-0354] + Cc1nc(Nc2ncc(C(=O)Nc3c(C)cccc3Cl)s2)cc(N2CCN(CCO)CC2)n1 [Dasatinib] (partner 0.075 µM)
How it was run: as §1

[3] = compound: O=C(Nc1cc(C(F)(F)F)cc(C(F)(F)F)c1)c1cc(Cl)ccc1O [IMD-0354] + Nc1nc2[nH]cc(CCc3ccc(C(=O)N[C@@H](CCC(=O)O)C(=O)O)cc3)c2c(=O)[nH]1 [Pemetrexed] (partner 0.2 µM)
How it was run: as §1

[4] = compound: O=C(Nc1cc(C(F)(F)F)cc(C(F)(F)F)c1)c1cc(Cl)ccc1O [IMD-0354] + COc1cc2c(Oc3ccc(NC(=O)C4(C(=O)Nc5ccc(F)cc5)CC4)cc3F)ccnc2cc1OCCCN1CCOCC1 [Foretinib] (partner 0.25 µM)
How it was run: as §1

UMC-11 showed a relative viability ([1]; first compound 0.01 µM) of 0.36, a relative viability ([1]; first compound 0.03162 µM) of 0.319 and a relative viability ([1]; first compound 0.1 µM) of 0.306. For the same cell line, the relative viability ([1]; first compound 0.3162 µM) was 0.294, the relative viability ([1]; first compound 1 µM) was 0.241 and the relative viability ([2]; first compound 0.04 µM) was 0.541. It also gave a relative viability ([2]; first compound 0.1265 µM) of 0.416, a relative viability ([2]; first compound 0.4 µM) of 0.246 and a relative viability ([2]; first compound 1.265 µM) of 0.171. For the same cell line, the relative viability ([2]; first compound 4 µM) was 0.206, the relative viability ([3]; first compound 0.04 µM) was 0.819 and the relative viability ([3]; first compound 0.1265 µM) was 0.692. For the same cell line, the relative viability ([3]; first compound 0.4 µM) was 0.281, the relative viability ([3]; first compound 1.265 µM) was 0.205 and the relative viability ([3]; first compound 4 µM) was 0.219. The relative viability ([4]; first compound 0.04 µM) was 1.07, the relative viability ([4]; first compound 0.1265 µM) was 1.03 and the relative viability ([4]; first compound 0.4 µM) was 0.431. The relative viability ([4]; first compound 1.265 µM) was 0.235 and the relative viability ([4]; first compound 4 µM) was 0.235.

Reference: the supplement of paper PMC10307832
